This test deals with A549 cells transfected with the LARGE portion of the isoform 4 (PC4-5). The test is described as follows: Cell proliferation by CFSE and flow cytometry in transfected A549 cells. The note with it: FIG. 6B; for tumour growth / cancer proliferation in the cells transfected with the "large" subunit of the isoform 4: concentration not stated at this place. The test is classed as cell-based, human. As to the method:
Transfections. A549 cells, lung adenocarcinoma, were transfected by means of marketable kits for 72 hours in transient way with the plasmid vectors: 1. PC4-1, miming the whole isoform 1 of the caspase-4; 2. PC4-2, miming CARD+LARGE subunit; 3. PC4-3, miming LARGE+SMALL subunit of the isoform 1; 4. PC4-4, miming LARGE subunit of the isoform 1 and 5. PC4-5, miming LARGE subunit of the isoform 4 of the caspase-4. The cell proliferation was evaluated through method of CFSE (1 μM), analysed by means of flow cytometry. In some experiments, the transfected cells marked with CFSE, were subjected to treatment with two leader compounds (compound 5: COMP-5; compound 6: COMP-6).
In order to understand the role of the isoform 4 in the cancer growth, the A549 cells, cells of lung adenocarcinoma, were transfected with specific vectors, containing specific portions of the isoform 1 and isoform 4 as described in FIG. 6A. It was observed that the isoform 4 and 1 are both capable of promoting cancer proliferation when the LARGE subunit is expressed with respect to the other considered structures (FIG. 6A). At last, the cells transfected with the large subunit of the isoform 1 (PC4-4) and 4 (PC4-5) were treated with leading compound with the purpose of verifying a cancer growth decrease.

Consider Ac-VVDC-NH2 [compound 6], for which the “tumour growth / cancer proliferation in the cells transfected with the "large" subunit of the isoform 4” value is “can be inhibited”. The “cancer growth of the A549 cells transfected with the LARGE portion of the isoform 4” value (compound at 10 nM, A549 transfected with PC4-5, CFSE flow cytometry) is “capable of reducing significantly the cancer growth”. In addition, the “tumour growth / cancer proliferation in the cells transfected with the "large" subunit of the isoform 4” value (listed as Ac-VVDC-NH2) was “significant decrease in the tumour growth”.
